Holding throughout (assay type): biochemical
Assay [1] concerns the target T1, human Lck enzyme (Homo sapiens, UniProt P06239).
T1 construct: purchased Carna Biosciences, Inc. 08-170
Kind of assay: Lck enzyme inhibitory activity (time-resolved fluorometry, biotinylated peptide phosphorylation). The following applies: read-out: LCK_IC50. In a few lines: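 Readout pairs a europium cryptate-labelled anti-phosphotyrosine antibody with XL665-streptavidin, measured by time-resolved fluorescence. IC50 derived from percent inhibition against untreated controls.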

Assay [2] deals with T2, human Src enzyme (Homo sapiens, UniProt P12931).
T2 construct: purchased Carna Biosciences, Inc. 08-173
T2 sequence (P12931 whole entry): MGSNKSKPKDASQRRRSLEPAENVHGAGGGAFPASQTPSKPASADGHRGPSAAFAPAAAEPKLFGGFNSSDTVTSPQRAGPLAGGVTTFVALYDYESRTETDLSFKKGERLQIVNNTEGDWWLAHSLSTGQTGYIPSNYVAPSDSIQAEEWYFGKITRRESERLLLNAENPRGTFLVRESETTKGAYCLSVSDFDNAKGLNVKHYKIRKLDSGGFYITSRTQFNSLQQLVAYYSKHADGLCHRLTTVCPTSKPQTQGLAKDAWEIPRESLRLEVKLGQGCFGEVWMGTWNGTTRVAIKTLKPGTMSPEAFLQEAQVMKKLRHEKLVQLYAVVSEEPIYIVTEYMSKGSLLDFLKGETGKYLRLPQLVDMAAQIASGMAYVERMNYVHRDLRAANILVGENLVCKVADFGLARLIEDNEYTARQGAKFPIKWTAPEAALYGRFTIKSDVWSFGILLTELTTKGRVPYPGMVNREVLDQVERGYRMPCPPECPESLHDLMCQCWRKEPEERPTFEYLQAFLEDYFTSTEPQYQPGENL
In words: Src enzyme inhibitory activity (time-resolved fluorometry, biotinylated peptide phosphorylation). The settings on record: read-out: SRC_IC50. Summed up: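 Compounds were tested for blocking tyrosine phosphorylation of a biotinylated peptide substrate by recombinant human Src. Phosphorylated product was quantified by time-resolved fluorometry using europium cryptate and XL665 conjugates, and IC50 was calculated against the compound-free control.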

The target in assay [3] is T3, human Yes1 enzyme (Homo sapiens, UniProt P07947).
T3 construct: made in house
T3 sequence (P07947 whole entry): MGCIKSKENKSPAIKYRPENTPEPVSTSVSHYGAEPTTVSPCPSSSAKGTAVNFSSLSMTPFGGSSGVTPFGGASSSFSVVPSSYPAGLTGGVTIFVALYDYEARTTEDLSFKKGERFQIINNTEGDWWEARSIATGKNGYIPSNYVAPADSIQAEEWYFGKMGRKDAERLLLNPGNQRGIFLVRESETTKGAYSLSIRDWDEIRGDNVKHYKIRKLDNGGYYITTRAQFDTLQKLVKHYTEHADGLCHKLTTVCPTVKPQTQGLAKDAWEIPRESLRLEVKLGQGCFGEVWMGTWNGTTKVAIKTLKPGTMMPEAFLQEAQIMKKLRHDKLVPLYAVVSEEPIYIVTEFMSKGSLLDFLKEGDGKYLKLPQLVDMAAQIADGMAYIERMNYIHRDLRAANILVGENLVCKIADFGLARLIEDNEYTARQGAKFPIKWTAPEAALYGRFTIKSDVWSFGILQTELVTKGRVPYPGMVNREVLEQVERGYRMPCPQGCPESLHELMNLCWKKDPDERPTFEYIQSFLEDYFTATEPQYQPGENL
In words: Yes1 enzyme inhibitory activity (time-resolved fluorometry, biotinylated peptide phosphorylation). The settings on record: read-out: YES_IC50. In a few lines:
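Inhibition was expressed against a compound-free control to give IC50, using TR-FRET read-out (Eu-cryptate anti-pTyr antibody, streptavidin-XL665).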

Where [4] appears, read: biotinylated peptide phosphorylation.

Like-named read-outs stand apart in the source and are kept apart here.

T1 sequence (P06239 whole entry): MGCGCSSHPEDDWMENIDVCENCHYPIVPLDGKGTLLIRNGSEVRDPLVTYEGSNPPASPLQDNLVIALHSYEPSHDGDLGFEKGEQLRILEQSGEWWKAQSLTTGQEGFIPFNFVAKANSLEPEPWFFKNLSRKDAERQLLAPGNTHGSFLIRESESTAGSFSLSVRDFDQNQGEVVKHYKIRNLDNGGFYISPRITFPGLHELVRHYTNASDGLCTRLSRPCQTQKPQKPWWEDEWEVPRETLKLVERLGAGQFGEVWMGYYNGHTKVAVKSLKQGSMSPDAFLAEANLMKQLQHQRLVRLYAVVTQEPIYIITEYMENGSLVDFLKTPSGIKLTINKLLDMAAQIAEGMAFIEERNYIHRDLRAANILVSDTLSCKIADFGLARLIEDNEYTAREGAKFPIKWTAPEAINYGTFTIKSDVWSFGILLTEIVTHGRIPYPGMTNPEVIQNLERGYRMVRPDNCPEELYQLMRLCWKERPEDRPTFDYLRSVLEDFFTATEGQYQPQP

As to `Cc1cc(Oc2ccccc2F)ccc1-n1ncc(C(=O)c2cc3cc(F)c(N4C(=O)N[C@@H](C)C4=O)cc3[nH]2)c1N` [Example 5-1-411, (5S)-3-[2-[5-amino-1-[4-(2-fluorophenoxy)-2-methylphenyl]pyrazole-4-carbonyl]-5-fluoro-1H-indol-6-yl]-5-methylimidazolidine-2,4-dione], the values for the IC50 in assay [1] (setting [4]), in assay [2] (setting [4]) and in assay [3] (setting [4]) were 4.2 nM, 37 nM and 0.73 nM, respectively.

Consider `Cc1cccc(S(=O)(=O)Nc2cc3[nH]c(C(=O)c4cnn(-c5ccc(Oc6ccccc6F)cc5C)c4N)cc3cc2F)n1` [Example 5-1-532, N-[2-[5-amino-1-[4-(2-fluorophenoxy)-2-methylphenyl]pyrazole-4-carbonyl]-5-fluoro-1H-indol-6-yl]-6-methylpyridine-2-sulfonamide], for which the results for the IC50 in assay [1] (setting [4]), in assay [2] (setting [4]) and in assay [3] (setting [4]) were 38 nM, 290 nM and 1.6 nM, respectively.

As for `Cc1cc(Oc2ccccc2F)ncc1-n1ncc(C(=O)c2cc3cc(F)c(NS(=O)(=O)C4CC4)cc3[nH]2)c1N` [Example 4-2-043, N-[2-[5-amino-1-[6-(2-fluorophenoxy)-4-methylpyridin-3-yl]pyrazole-4-carbonyl]-5-fluoro-1H-indol-6-yl]cyclopropanesulfonamide], the IC50 in assay [1] (setting [4]) is 28 nM; in assay [2] (setting [4]) it was 87 nM; in assay [3] (setting [4]), 1.4 nM.

As for `Cc1cc(Oc2c(F)cccc2F)ncc1-n1ncc(C(=O)c2cc3cc(OC(F)F)c(N4CCC(N5CCOCC5)CC4)cc3[nH]2)c1N` [Example 4-25-031, [5-amino-1-[6-(2,6-difluorophenoxy)-4-methylpyridin-3-yl]pyrazol-4-yl]-[5-(difluoromethoxy)-6-(4-morpholin-4-ylpiperidin-1-yl)-1H-indol-2-yl]methanone], the IC50 in assay [1] (setting [4]) was 7.2 nM; in assay [2] (setting [4]), 48 nM; in assay [3] (setting [4]), 1.9 nM.

Turning to `Cc1cc(Oc2ccccc2F)ccc1-n1ncc(C(=O)c2cc3cc(OCC(F)F)c(N4C(=O)NC5(CCNCC5)C4=O)cc3[nH]2)c1N` [Example 5-1-271, 3-[2-[5-amino-1-[4-(2-fluorophenoxy)-2-methylphenyl]pyrazole-4-carbonyl]-5-(2,2-difluoroethoxy)-1H-indol-6-yl]-1,3,8-triazaspiro [4.5]decane-2,4-dione], the IC50 in assay [1] is 3.2 nM; in assay [2], 7.2 nM; in assay [3], 0.51 nM.

For `Cc1cc(-n2ncc(C(=O)c3cc4cc(OC5CCN(C(C)C)CC5)c(N5C(=O)NC(C)(C)C5=O)cc4[nH]3)c2N)ccc1Oc1ccccc1F` [Example 5-1-180, 3-[2-[5-amino-1-[4-(2-fluorophenoxy)-3-methylphenyl]pyrazole-4-carbonyl]-5-(1-propan-2-ylpiperidin-4-yl)oxy-1H-indol-6-yl]-5,5-dimethylimidazolidine-2,4-dione], the IC50 stood at 6.3 nM in assay [1], 95 nM in assay [2] and 0.35 nM in assay [3].

`Cc1cc(Oc2ccccc2F)ccc1-n1ncc(C(=O)c2cc3cc(OCC(F)F)c(NS(=O)(=O)C4CC4)cc3[nH]2)c1N` [Example 4-24-020, N-[2-[5-amino-1-[4-(2-fluorophenoxy)-2-methylphenyl]pyrazole-4-carbonyl]-5-(2,2-difluoroethoxy)-1H-indol-6-yl]cyclopropanesulfonamide]: the IC50 in assay [1] (setting [4]) was found to be 22 nM; in assay [2] (setting [4]) it was 54 nM; in assay [3] (setting [4]) it was 3.1 nM.

As to `Cc1cc(Oc2ccccc2F)ccc1-n1ncc(C(=O)c2cc3cc(N4CCOCC4)c(N4CCOC4=O)cc3[nH]2)c1N` [Example 5-1-106, 3-[2-[5-amino-1-[4-(2-fluorophenoxy)-2-methylphenyl]pyrazole-4-carbonyl]-5-morpholin-4-yl-1H-indol-6-yl]-1,3-oxazolidin-2-one], the IC50 turned out to be 1.1 nM in assay [1], 2 nM in assay [2] and 0.42 nM in assay [3].

In the case of `COc1cc2cc(C(=O)c3cnn(-c4ccc(Oc5ccccc5F)cc4C)c3N)[nH]c2cc1N1CCCS1(=O)=O` [Example 4-14-002, [5-amino-1-[4-(2-fluorophenoxy)-2-methylphenyl]pyrazol-4-yl]-[6-(1,1-dioxo-1,2-thiazolidin-2-yl)-5-methoxy-1H-indol-2-yl]methanone], the IC50 is 5.6 nM in assay [1] (setting [4]), 8.8 nM in assay [2] (setting [4]) and 1.4 nM in assay [3] (setting [4]).

Regarding `Cc1cc(-n2ncc(C(=O)c3cc4cc(OC5CCN(C6CC6)CC5)c(Br)cc4[nH]3)c2N)ccc1Oc1ccccc1F` [Example 5-1-219, [5-amino-1-[4-(2-fluorophenoxy)-3-methylphenyl]pyrazol-4-yl]-[6-bromo-5-(1-cyclopropylpiperidin-4-yl)oxy-1H-indol-2-yl] methanone], the IC50 in assay [1] stood at 83 nM; in assay [2], 460 nM; in assay [3], 1.3 nM.

Turning to `Cc1cc(Oc2ccccc2F)ccc1-n1ncc(C(=O)c2cc3cc(OCC(F)F)c(NS(=O)(=O)c4cc(F)cc(F)c4)cc3[nH]2)c1N` [Example 5-1-415, N-[2-[5-amino-1-[4-(2-fluorophenoxy)-2-methylphenyl]pyrazole-4-carbonyl]-5-(2,2-difluoroethoxy)-1H-indol-6-yl]-3,5-difluorobenzenesulfonamide], the IC50 in assay [1] (setting [4]) is 110 nM; in assay [2] (setting [4]), 280 nM; in assay [3] (setting [4]) it was 5.9 nM.

For the molecule `CC(C)N1CCC(c2cc3[nH]c(C(=O)c4cnn(-c5ccc(Oc6cccc(F)c6)cc5)c4N)cc3cc2F)CC1` [Example 5-1-014, [5-amino-1-[4-(3-fluorophenoxy)phenyl]pyrazol-4-yl]-[5-fluoro-6-(1-propan-2-ylpiperidin-4-yl)-1H-indol-2-yl]methanone], the IC50 was determined as 3 nM in assay [1], 43 nM in assay [2] and 2.4 nM in assay [3].

On to `CS(=O)(=O)Nc1cc2[nH]c(C(=O)c3cnn(-c4c(Cl)cc(Oc5ccccc5F)cc4Cl)c3N)cc2cc1F` [Example 5-1-023, N-[2-[5-amino-1-[2,6-dichloro-4-(2-fluorophenoxy)phenyl]pyrazole-4-carbonyl]-5-fluoro-1H-indol-6-yl]methanesulfonamide], for which the IC50 in assay [1] came to 64 nM; in assay [2], 240 nM; in assay [3] it was 16 nM.

For the molecule `Cc1cc2cc(C(=O)c3cnn(-c4ccc(Oc5ccccc5F)cc4C)c3N)[nH]c2cc1NS(=O)(=O)CCCF` [Example 4-2-068, N-[2-[5-amino-1-[4-(2-fluorophenoxy)-2-methylphenyl]pyrazole-4-carbonyl]-5-methyl-1H-indol-6-yl]-3-fluoropropane-1-sulfonamide], the results for the IC50 in assay [1] (setting [4]), in assay [2] (setting [4]) and in assay [3] (setting [4]) were 21 nM, 28 nM and 1.8 nM, respectively.

With `Cc1cc(Oc2ccccc2F)ccc1-n1ncc(C(=O)c2cc3cc(OC4CCOCC4)c(NS(C)(=O)=O)cc3[nH]2)c1N` [Example 4-24-036, N-{2-{5-amino-1-[4-(2-fluorophenoxy)-2-methylphenyl]pyrazole-4-carbonyl}-5-(oxan-4-yloxy)-1H-indol-6-yl}methanesulfonamide], the IC50 stood at 20 nM in assay [1] (setting [4]), 120 nM in assay [2] (setting [4]) and 4.2 nM in assay [3] (setting [4]).

For `Cc1cnc(F)c(S(=O)(=O)Nc2cc3[nH]c(C(=O)c4cnn(-c5cnc(Oc6c(F)cccc6F)cc5C)c4N)cc3cc2C)c1` [Example 5-1-521, N-[2-[5-amino-1-[6-(2,6-difluorophenoxy)-4-methylpyridin-3-yl]pyrazole-4-carbonyl]-5-methyl-1H-indol-6-yl]-2-fluoro-5-methylpyridine-3-sulfonamide], the IC50 in assay [1] (setting [4]) stood at 180 nM; in assay [2] (setting [4]), 470 nM; in assay [3] (setting [4]), 5.8 nM.

Consider `Cc1cc2cc(C(=O)c3cnn(-c4cnc(Oc5c(F)cccc5F)cc4C)c3N)[nH]c2cc1NS(=O)(=O)CC(=O)N1CCOCC1` [Example 4-10-010, N-[2-[5-amino-1-[6-(2,6-difluorophenoxy)-4-methylpyridin-3-yl]pyrazole-4-carbonyl]-5-methyl-1H-indol-6-yl]-2-morpholin-4-yl-2-oxoethanesulfonamide], for which the IC50 came to 7.1 nM in assay [1] (setting [4]), 26 nM in assay [2] (setting [4]) and 1.3 nM in assay [3] (setting [4]).

`Cc1cc(Oc2c(F)cccc2F)ncc1-n1ncc(C(=O)c2cc3cc(OC(F)F)c(C4CCN(S(C)(=O)=O)CC4)cc3[nH]2)c1N` [Example 4-17-012, [5-amino-1-[6-(2,6-difluorophenoxy)-4-methylpyridin-3-yl]pyrazol-4-yl]-[5-(difluoromethoxy)-6-(1-methylsulfonylpiperidin-4-yl)-1H-indol-2-yl]methanone]: the IC50 worked out at 30 nM in assay [1] (setting [4]), 45 nM in assay [2] (setting [4]) and 16 nM in assay [3] (setting [4]).

`COc1cc2cc(C(=O)c3cnn(-c4cnc(Oc5ccccc5F)cc4C)c3N)[nH]c2cc1NC(C)=O` [Example 4-11-001, N-{2-{5-amino-1-[6-(2-fluorophenoxy)-4-methylpyridin-3-yl]pyrazole-4-carbonyl}-5-methoxy-1H-indol-6-yl}acetamide]: the IC50 amounted to 5.6 nM in assay [1] (setting [4]), 33 nM in assay [2] (setting [4]) and 1.5 nM in assay [3] (setting [4]).

As for `COc1cc2cc(C(=O)c3cnn(-c4cnc(Oc5ccccc5F)cc4C)c3N)[nH]c2cc1NS(=O)(=O)CCCF` [Example 4-13-001, N-{2-{5-amino-1-[6-(2-fluorophenoxy)-4-methylpyridin-3-yl]pyrazole-4-carbonyl}-5-methoxy-1H-indol-6-yl}-3-fluoropropane-1-sulfonamide], the IC50 worked out at 26 nM in assay [1] (setting [4]), 76 nM in assay [2] (setting [4]) and 2.4 nM in assay [3] (setting [4]).

The values above are taken from patent US10479780B2, “Aminopyrazole derivatives” (Chugai Seiyaku Kabushiki Kaisha, priority 2015, dated 2019).
